Test [1] addresses T1, hP2Y14R (Homo sapiens, UniProt Q15391).
T1 sequence (Q15391 1-338): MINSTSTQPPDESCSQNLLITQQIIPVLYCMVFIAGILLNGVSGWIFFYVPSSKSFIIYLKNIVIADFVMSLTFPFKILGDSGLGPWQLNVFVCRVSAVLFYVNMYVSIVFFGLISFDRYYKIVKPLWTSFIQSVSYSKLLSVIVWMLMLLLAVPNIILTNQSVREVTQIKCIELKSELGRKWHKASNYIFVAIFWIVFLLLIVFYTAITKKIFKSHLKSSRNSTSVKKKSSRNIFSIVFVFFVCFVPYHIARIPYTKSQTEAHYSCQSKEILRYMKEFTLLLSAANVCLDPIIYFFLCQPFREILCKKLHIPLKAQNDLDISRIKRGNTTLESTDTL
Description: competition for fluorescent binding of tracer 11.

The target of a further test is T2, P2Y14R-CHO cells (Homo sapiens, UniProt Q15391).
T2 sequence (Q15391 1-338): T1 sequence (Q15391 1-338)
Description: confocal fluorescence microscopy labeling of P2Y14R-CHO cells by 11. The format is cell-based.

Test [2] addresses T1, hP2Y14R. The class given is binding.
In another test the target is T3, human P2Y14R (Homo sapiens, UniProt Q15391).
T3 sequence (Q15391 1-338): T1 sequence (Q15391 1-338)
The experiment in a line: inhibition of forskolin-stimulated cAMP accumulation in CHO-P2Y14R cells. As to conditions: cAMP EC50 ratio, hP2Y14R-CHO cells. The class given is cell-based. A general note: Changes in cAMP serve as a functional read-out for many G protein-coupled receptors.

Another test deals with P2Y6R. Particulars: read-out: EC50 for activation of the P2Y6R; cited from earlier work.

Entries after “also recorded” stand apart in the source; their conditions may differ.

Regarding `O=C(O)c1cc(-c2ccc(C3CCNCC3)cc2)c2ccc(-c3ccc(C(F)(F)F)cc3)cc2c1` [Compound 5, 4-(4-(piperidin-4-yl)-phenyl)-7-(4-(trifluoromethyl)-phenyl)-2-naphthoic acid], the “inhibition of binding of 11 (FCM, concentration dependence)” value on hP2Y14R [1] is “Nearly complete inhibition”. Moreover, the “inhibition of fluorescent labeling by 11 (confocal microscopy)” value against P2Y14R-CHO cells is given as “complete inhibition of binding”.

In the case of `O=C(COc1ccc(C2=[N+]3C(=Cc4ccc(-c5cccs5)n4[B-]3(F)F)C=C2)cc1)NCCCCCNC(=O)[C@H]1O[C@H](OP(=O)(O)OP(=O)(O)OCC2OC(n3ccc(=O)[nH]c3=O)C(O)C2O)[C@H](O)[C@@H](O)[C@@H]1O` (some centres unmarked) [Compound 11], at hP2Y14R [2] (FCM saturation binding, n=3), the Bmax is listed as 44,400 MESF. Besides, the “level of nonspecific binding” value on hP2Y14R [2] (FCM, coincubation with up to 200 nM 5) is on record as “very low”. At human P2Y14R, the “potency enhancement of the fluorescent conjugate versus 47 nM parent” value worked out at 50 fold.

In general, EC50 refers to the concentration that produces a half-maximal response. Take `CONc1ccn([C@@H]2O[C@H](COP(=O)(O)OP(=O)(O)OP(=O)(O)OC[C@H]3O[C@@H](n4ccc(=O)[nH]c4=O)[C@@H](O)[C@H]3O)[C@H](O)[C@@H]2O)c(=O)n1` [Compound 12, P^1-(uridine 5′-)-P^3-(N^4-methoxycytidine 5′-)triphosphate]: the “Ki at P2Y14R relative to EC50 at P2Y6R” value at hP2Y14R [1] (Ki (FCM, P2Y14R) higher than P2Y6R EC50) is “about 500 fold”. Besides, the EC50 in the test with P2Y6R was 12 nM.

As for `S=C=Nc1cccc(NC(=S)NCCCCNC(=S)Nc2cccc(N=C=S)c2)c1` [Compound 13], the “inhibition of binding of 11 at hP2Y14R at fixed concentration” value on hP2Y14R [1] (test ligand at 10 μM, tracer 11 50 nM, FCM) is on record as “did not show any significant binding; also recorded: No inhibition at 10 μM”.
